Assay results from paper PMC9234964, “Design, Synthesis, and Biological Evaluation of a Novel Series of 4-Guanidinobenzoate Derivatives as Enteropeptidase Inhibitors with Low Systemic Exposure for the Treatment of Obesity” (Journal of Medicinal Chemistry, 2022).
Structures can show the parent of a compound that is named as a salt. Where two headings read alike, the source gives them in different places.

Tests used:
human enteropeptidase [1] = target: T1, human enteropeptidase (Homo sapiens, UniProt P98073); test: Human enteropeptidase enzyme assay; assay type: biochemical
T1 construct: purchased ITSI-Biosciences, LLC #REN-260
T1 sequence (P98073 whole entry): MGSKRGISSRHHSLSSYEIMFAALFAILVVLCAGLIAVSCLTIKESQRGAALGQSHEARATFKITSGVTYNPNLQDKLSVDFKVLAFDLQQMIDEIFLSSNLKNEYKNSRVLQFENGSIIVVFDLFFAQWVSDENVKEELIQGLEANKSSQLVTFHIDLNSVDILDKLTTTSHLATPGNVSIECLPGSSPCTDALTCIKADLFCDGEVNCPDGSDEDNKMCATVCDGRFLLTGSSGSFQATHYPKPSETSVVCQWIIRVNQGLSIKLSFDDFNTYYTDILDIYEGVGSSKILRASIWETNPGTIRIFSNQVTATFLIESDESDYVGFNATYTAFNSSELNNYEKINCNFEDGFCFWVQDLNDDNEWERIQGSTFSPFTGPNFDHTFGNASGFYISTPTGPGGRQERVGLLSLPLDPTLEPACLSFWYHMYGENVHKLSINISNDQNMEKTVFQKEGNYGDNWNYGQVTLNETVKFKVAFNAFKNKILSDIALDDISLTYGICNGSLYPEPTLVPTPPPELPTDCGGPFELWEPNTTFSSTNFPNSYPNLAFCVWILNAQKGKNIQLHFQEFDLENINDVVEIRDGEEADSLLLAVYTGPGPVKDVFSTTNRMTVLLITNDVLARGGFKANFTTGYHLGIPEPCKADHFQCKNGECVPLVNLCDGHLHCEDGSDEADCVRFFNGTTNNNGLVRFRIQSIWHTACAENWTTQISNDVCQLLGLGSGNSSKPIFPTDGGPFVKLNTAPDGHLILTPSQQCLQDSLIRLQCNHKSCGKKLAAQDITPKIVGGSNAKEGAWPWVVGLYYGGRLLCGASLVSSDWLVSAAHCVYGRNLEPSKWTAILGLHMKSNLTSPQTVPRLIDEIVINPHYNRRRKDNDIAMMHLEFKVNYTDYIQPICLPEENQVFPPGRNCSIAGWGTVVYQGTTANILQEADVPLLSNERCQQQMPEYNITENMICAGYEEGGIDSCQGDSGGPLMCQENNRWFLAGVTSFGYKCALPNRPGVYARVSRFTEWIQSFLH
Procedure: Human recombinant enteropeptidase (#REN-260, ITSI-Biosciences, LLC) was diluted with an assay buffer (50 mM tricine (pH 8.0), 0.01(w/v)% Tween 20, 10 mM CaCl2) to prepare a 24 mU/mL enzyme solution. Subsequently, 5FAM–Abu–[…]CPQ2)–Lys–Lys–NH2 (purity: 97.2%, CPC Scientific, Inc.) was diluted with an assay buffer to prepare a 2.1 μM substrate solution. Compounds were dissolved in DMSO and then diluted in the assay buffer. The compound solution (5 μL/well) and the substrate solution (5 μL/well) were added to a 384-well black plate (#784076, Greiner Bio-One) and mixed. Then, the enzyme solution (5 μL/well) was added to the plate and mixed to start the reaction. The fluorescence intensity was measured at an excitation wavelength of 485 nm and a fluorescence wavelength of 535 nm using a fluorescence plate reader EnVision (PerkinElmer Inc.). Also, the same reaction as above was performed except that the test compound was not added (test compound non-supplemented group). In addition, the same reaction as above was performed except that neither the test compound nor the enzyme was added (control group).
Inhibition rate (%) = (1 – (fluorescence intensity of the test compound supplemented group – fluorescence intensity of the control group)/(fluorescence intensity of the test compound non-supplemented group – fluorescence intensity of the control group)) × 100.

[2] = PAMPA (parallel artificial membrane permeability assay); assay type: in vitro ADME; settings: for Papp: PAMPA
human enteropeptidase [3] = target: T1, human enteropeptidase; test: Dissociation assay (recovery of active enzyme after rapid dilution); assay type: biochemical; settings: rapid dilution after 2 h preincubation of compound and enzyme
Text: Although not all reaction constants for 1c could be identified, the in vitro IC50 value could be used as an indicator of the combination of k1, k–1, and k2. In this case, the IC50 value of a compound is derived from its affinity for enteropeptidase (k1 and k–1) and its reactivity against enteropeptidase (k2). […] As the affinity of a compound for enteropeptidase is expected to largely contribute to the IC50 value based on initial velocities (IC50(initial)) relative to the IC50 value based on the steady state (IC50(app)), we performed chemical modifications based on IC50(initial). […] Because T1/2 can be an indicator of k3, we focused on compounds with low IC50(initial) values and long T1/2 values.
For dissociation assay, compounds were dissolved in DMSO and then diluted in assay buffer (50 mM Tricine pH 8.0, 0.01(w/v)% Tween20, 10 mM CaCl2). 10 μL of compound solution was added in 96-well plate (corning), and then, 10 μL of 100 mU/mL human recombinant enteropeptidase (ITSI-Biosciences) solution was added into the plate and incubated at room temperature for 2 h. […] After incubation, 2 μL of the compound-enzyme mixture was transferred to a 96-well black plate (Corning) and 200 μL of substrate solution (3 μM 5FAM–Abu–[…]CPQ2)–Lys–Lys–NH2 (CPC Scientific)) was added into the well. By rapid dilution, the inhibitor concentration went to 10-fold below the IC50 from 10-fold above the IC50. The fluorescence was measured each 2 min at excitation wavelength 485 nm and emission wavelength 535 nm by EnVision (Perkin Elmer). The progress curves were fitted to following equation to determine the values for koff and dissociation half-life T1/2 according to the following equations. [drawing 4] 1 where t is time and F is fluorescence from initial rate vo to steady state rate vs. [drawing 5] 2

[4] = Aqueous stability at pH 1.2/6.8; assay type: physicochemical; settings: 24 h; for stability at pH 1.2 (% decomposed): pH 1.2, 37 °C; for stability at pH 6.8 (% decomposed): pH 6.8, 37 °C
Procedure: Sample solutions in pH 1.2/6.8 media (first/second fluids for the disintegration test in the Japanese Pharmacopoeia 17th edition, including 10% dimethyl sulfoxide if needed, 10 μg/mL) were prepared for the compounds and incubated at 37 °C. The sample solutions were measured initially and at 24 h using HPLC, and peak analysis was conducted. Residual contents (%) of the compounds in pH 1.2/6.8 media at 37 °C after 24 h of incubation of the initial solutions were calculated using the peak areas.

High-Fat-Diet-Fed Mice = test: Increase in fecal protein output in high-fat-diet-fed mice; assay type: in vivo, mouse; settings: 10 mg/kg, oral
Procedure: A high-fat diet (HFD)-fed mouse (D12079B diet, male, 14–21 weeks old) was used for the in vivo assay. For compound screening, mice were orally administered with either the test compound (10 mg/kg) or 0.5% methylcellulose (MC) as a vehicle control. For the assessment of efficacy by systemic exposure of the compound, mice were subcutaneously administered with compound 2a (10 mg/kg) or saline as a vehicle control and compared with those administered oral treatment (60 mg/kg). Doses were selected to achieve equivalent systemic exposure as the area under the curve over 24 h based on pharmacokinetic data of both oral and subcutaneous administration. Whole feces were collected overnight, and the fecal protein output was evaluated as described previously.[33]

[5] = Kinetic aqueous solubility at pH 1.2/6.8; assay type: physicochemical; settings: aqueous medium, kinetic from dmso stock
DIO mice = settings: growth phase; cited from earlier work
[6] = 6 min, supplement csv, unit inferred, read-out: human enteropeptidase IC50 (6 min)
[7] = 120 min, supplement csv, unit inferred, read-out: human enteropeptidase IC50 (120 min)
[8] = 6 min incubation of enzyme, substrate and compound at room temperature, 95% confidence intervals in parentheses, read-out: Human enteropeptidase IC50(initial)
[9] = 120 min incubation of enzyme, substrate and compound at room temperature, 95% confidence intervals in parentheses, read-out: Human enteropeptidase IC50(app)
[10] = pH 1.2, simulated gastric fluid, read-out: Kinetic aqueous solubility at pH 1.2
[11] = pH 6.8, aqueous buffer, read-out: Kinetic aqueous solubility at pH 6.8

Structure (SMILES)	IC50 (human enteropeptidase [1]; [8]) [nM]	IC50 (human enteropeptidase [1]; [9]) [nM]	fecal protein output (fold of 2a) (High-Fat-Diet-Fed Mice)	also measured
Cc1cc(OC(=O)c2ccc(NC(=N)N)cc2)no1.Cl [1a]	–	–	–	IC50 (human enteropeptidase [1]; [6]): 1500 nM; Papp ([2]; pH 7.4, read-out: PAMPA at pH 7.4): 0.3 ×10⁻⁶ cm/s; Papp ([2]; pH 5.0, read-out: PAMPA at pH 5.0): 0.5 ×10⁻⁶ cm/s
CS(=O)(=O)O.N=C(N)Nc1ccc(C(=O)Oc2ccccc2)cc1 [1b]	–	–	–	IC50 (human enteropeptidase [1]; [6]): 5600 nM; IC50 (human enteropeptidase [1]; [7]): 400 nM; PAMPA at pH 5.0 ([2]; pH 5.0): <2 nm/sec; PAMPA at pH 7.4 ([2]; pH 7.4): <2 nm/sec
N=C(N)Nc1ccc(C(=O)Oc2ccc(CC(=O)NCC(=O)O)cc2)cc1.O=C(O)C(F)(F)F [1c, N-({4-[(4-Carbamimidamidobenzoyl)oxy]phenyl}acetyl)glycine Trifluoroacetic Acid Salt]	–	–	–	IC50 (human enteropeptidase [1]; [6]): 540 nM; IC50 (human enteropeptidase [1]; [7]): 30 nM; PAMPA at pH 5.0 ([2]; pH 5.0): 2 nm/sec; PAMPA at pH 7.4 ([2]; pH 7.4): 2 nm/sec
N=C(N)Nc1ccc(C(=O)Oc2ccc(CC(=O)N[C@@H](CC(N)=O)C(=O)O)cc2)cc1 [2b, N^2-({4-[(4-Carbamimidamidobenzoyl)oxy]phenyl}acetyl)-L-asparagine Trifluoroacetic Acid Salt]	310	23	–	–
N=C(N)Nc1ccc(C(=O)Oc2ccc(CC(=O)N[C@@H](CCC(=O)O)C(=O)O)cc2)cc1 [2c, N-({4-[(4-Carbamimidamidobenzoyl)oxy]phenyl}acetyl)-L-glutamic Acid Hydrochloride]	120	7.9	–	–
Cc1cc(C(=O)Oc2ccc(CC(=O)N[C@@H](CC(=O)O)C(=O)O)cc2)ccc1NC(=N)N [3a, N-({4-[(4-Carbamimidamido-3-methylbenzoyl)oxy]phenyl}acetyl)-L-aspartic Acid]	> 3300	680	–	fold decrease in IC50(initial) relative to 2a (human enteropeptidase [1]; 6 min, methyl group at the 3-position): more than 30 fold
Cc1cc(NC(=N)N)ccc1C(=O)Oc1ccc(CC(=O)N[C@@H](CC(=O)O)C(=O)O)cc1 [3b, N-({4-[(4-Carbamimidamido-2-methylbenzoyl)oxy]phenyl}acetyl)-L-aspartic Acid]	940	54	–	T1/2, half-time of dissociation from human enteropeptidase (human enteropeptidase [3]): >120 min
N=C(N)Nc1ccc(C(=O)Oc2ccc(CC(=O)N[C@@H](CC(=O)O)C(=O)O)cc2)c(Cl)c1 [3c, N-({4-[(4-Carbamimidamido-2-chlorobenzoyl)oxy]phenyl}acetyl)-L-aspartic Acid]	57	5.6	–	T1/2, half-time of dissociation from human enteropeptidase (human enteropeptidase [3]): 14 min
N=C(N)Nc1ccc(C(=O)Oc2ccc(CC(=O)N[C@@H](CC(=O)O)C(=O)O)cc2)c(F)c1 [3d, N-({4-[(4-Carbamimidamido-2-fluorobenzoyl)oxy]phenyl}acetyl)-L-aspartic Acid]	7.4	0.81	–	T1/2, half-time of dissociation from human enteropeptidase (human enteropeptidase [3]): 6.1 min
N=C(N)Nc1ccc(C(=O)Oc2cccc(CC(=O)N[C@@H](CC(=O)O)C(=O)O)c2)cc1.O=C(O)C(F)(F)F [4a, N-({3-[(4-Carbamimidamidobenzoyl)oxy]phenyl}acetyl)-L-aspartic Acid Trifluoroacetic Acid Salt]	32	1.6	0.97 fold of 2a	stability at pH 1.2 (% decomposed) [4]: 2.8 % decomposed; stability at pH 6.8 (% decomposed) [4]: 5.8 % decomposed; solubility kinetic [5, 10]: > 86 µg/mL; solubility kinetic [5, 11]: > 92 µg/mL
N=C(N)Nc1ccc(C(=O)Oc2cccc(C(=O)N[C@@H](CC(=O)O)C(=O)O)c2)cc1.O=C(O)C(F)(F)F [4b, N-{3-[(4-Carbamimidamidobenzoyl)oxy]benzoyl}-L-aspartic Acid Trifluoroacetic Acid Salt]	13	0.82	0.82 fold of 2a	stability at pH 1.2 (% decomposed) [4]: 3.9 % decomposed; stability at pH 6.8 (% decomposed) [4]: 8.6 % decomposed; solubility kinetic [5, 10]: > 91 µg/mL; solubility kinetic [5, 11]: > 89 µg/mL
N=C(N)Nc1ccc(C(=O)Oc2ccc(C(=O)N[C@@H](CC(=O)O)C(=O)O)cc2)cc1.O=C(O)C(F)(F)F [4c, N-{4-[(4-Carbamimidamidobenzoyl)oxy]benzoyl}-L-aspartic Acid Trifluoroacetic Acid Salt]	65	3.2	0.88 fold of 2a	solubility kinetic [5, 10]: 69 µg/mL; solubility kinetic [5, 11]: > 88 µg/mL
N=C(N)Nc1ccc(C(=O)Oc2ccc3c(c2)OC(CC(=O)N[C@@H](CC(=O)O)C(=O)O)C3)cc1 (stereo partly drawn) [5a, N-({6-[(4-Carbamimidamidobenzoyl)oxy]-2,3-dihydro-1-benzofuran-2-yl}acetyl)-L-aspartic Acid]	180	14	–	–
N=C(N)Nc1ccc(C(=O)Oc2cccc(C3=NO[C@@](CC(=O)O)(C(=O)O)C3)c2)cc1 [6c, (5S)-3-{3-[(4-Carbamimidamidobenzoyl)oxy]phenyl}-5-(carboxymethyl)-4,5-dihydro-1,2-oxazole-5-carboxylic Acid]	26	1.8	1.23 fold of 2a	–
N=C(N)Nc1ccc(C(=O)Oc2ccc3c(c2)OC[C@@H]3CC(=O)N[C@@H](CC(=O)O)C(=O)O)cc1 [(R)-5b, N-({(3R)-6-[(4-Carbamimidamidobenzoyl)oxy]-2,3-dihydro-1-benzofuran-3-yl}acetyl)-L-aspartic Acid]	84	7.7	1.26 fold of 2a	–
CC(=O)N[C@@H](C)C(=O)N[C@@H](Cc1ccccc1)C(=O)N[C@@H](CCCCN)B1O[C@@H]2C[C@@H]3C[C@@H](C3(C)C)[C@]2(C)O1 [OBE-2008]	–	–	–	rate of body weight gain (DIO mice): significantly reduced
